Test results from patent US5789439A, “Pharmaceutical use of forskolin derivatives” (Nippon Kayaku Kabushiki Kaisha, priority 1990, dated 1998).
Counter-ions that a name gives are not always drawn.

What was measured:
Assay type in all cases: cell-based
[1] = system: collagen-induced aggregation of rabbit blood thrombocyte; experiment: Collagen-induced platelet aggregation inhibition, rabbit platelet rich plasma; conditions: Oryctolagus cuniculus, Platelet; rabbit PRP, collagen 10 μg/ml; mean, n = 5; read-out: Platelet aggregation inhibitory action (IC50), Collagen-induced aggregation
Method: (§1) The platelet aggregation inhibitory action of NKH-477 was examined on collagen-induced aggregation and ADP-induced aggregation of rabbit blood thrombocyte. The male Japanese white rabbits (body weight: 2.4-2.8 kg, procured from Tokyo Experimental Animals Co., Ltd.) were divided into groups of 5. The rabbits were etherized and blood was collected from the carotid artery of each rabbit. A 3.8% sodium citrate solution (final concentration: 0.38%) was added to a portion of blood collected from each group of rabbits to obtain platelet rich plasma (PRP). The remaining portion of blood was centrifuged at 3,000 r.p.m. for 15 minutes to obtain platelet poor plasma (PPP). First, permeability of PRP and PPP was determined by using an aggregometer (RMA-31 mfd. by Rika Denki Kogyo K. K.) and set at 0% and 100%, respectively. Separately from the above operation, 250 μl of PRP was placed in a cuvette and after preliminary heating at 37° C. for 2 minutes, 20 μl of specimen was added and incubated under stirring for 2 minutes. Then 10 μl of ADP (Sigma, final conc.: 3×10^-6 M) or collagen (Hormon-Chemie, final conc.: 10 μg/ml) was added and the transmission rate was measured. The maximum transmission rate observed in this operation was termed as the maximum aggregation rate. Recording in this operation was conducted on an ink-written recorder (B-381L mfd. by Rika Denki Kogyo K. K.). NKH-477 was dissolved in a physiological saline to make concentrations of 10^-8 to 10^-5 M. Forskolin dissolved in ethanol was used as control.

[2] = system: NB-1 cells (a human neuroblastoma strain); experiment: Differentiation inducing effect for NB-1 cells; parameters: key: -: none; ±: slight (<20%); +: medium (20-80%); ++: heavy (>80%); conditions: 4-hour incubation
Method: The differentiation inducing effect for the NB-1 cells (a human neuroblastoma strain: cell strain derived from neuroblastoma generated in infantile adrenal gland) was examined. The NB-1 cells were applied to a 96-well plate at a rate of 2×10^3 cells/well and precultured for 3 days. After attachment and growth were stabilized, the medium (RPMI 1640+10% fetal calf serum+SM.PC) was exchanged and a 10 μl solution of each test compound was added. Then, the cells were kept under constant observation to determine the occurrence or non-occurrence of differentiation. 2 mM (1.037 mg/ml) of dibutyryl cAMP dissolved in RPMI 1640 was used as positive control. NKH-477 and 14,15-dihydro-6-(3-dimethylaminopropionyl)forskolin hydrochloride were dissolved in a physiological saline. Forskolin was dissolved in DMSO and diluted with a physiological saline. The criterion for judgment of morphological change in differentiation is as follows. The figures in the parentheses are the ratio of the differentiated cells to the whole cells. It was confirmed that DMSO was totally devoid of differentiation inducing and promoting action at the concentrations used in this test.

[3] = system: ADP-induced aggregation of rabbit blood thrombocyte; experiment: ADP-induced platelet aggregation inhibition, rabbit platelet rich plasma; conditions: Oryctolagus cuniculus, rabbit PRP, ADP 3×10^-6 M, mean, n = 5, read-out: Platelet aggregation inhibitory action (IC50), ADP-induced aggregation
Method: as §1, with “NKH-477 was dissolved in a physiological saline to make concentrations of 10^-8 to 10^-5 M. Forskolin dissolved in ethanol was used as control.” left out

SMILES	IC50 [1]	Effect (differentiation inducing) ([2]; Dose 1.56 μM)	Effect (differentiation inducing) ([2]; Dose 6.25 μM)	Effect (differentiation inducing) ([2]; Dose 25.00 μM)	Effect (differentiation inducing) ([2]; Dose 100.00 μM)	IC50 [3]	Effect (differentiation inducing) ([2]; Dose 2000.0 μM)
C=C[C@@]1(C)CC(=O)[C@]2(O)[C@@]3(C)[C@@H](O)CCC(C)(C)[C@@H]3[C@H](O)[C@H](OC(C)=O)[C@@]2(C)O1 [Forskolin]	3.09 µM	-	-	± (slight (<20%))	+ (medium (20-80%))	6.03 µM	
CC[C@@]1(C)CC(=O)[C@]2(O)[C@@]3(C)[C@@H](O)CCC(C)(C)[C@@H]3[C@H](OC(=O)CCN(C)C)[C@H](OC(C)=O)[C@@]2(C)O1 [14,15-dihydro-6-(3-dimethylaminopropionyl)forskolin hydrochloride]		± (slight (<20%))	± (slight (<20%))	++ (heavy (>80%))	++ (heavy (>80%))		
CCCC(=O)Nc1ncnc2c1ncn2[C@@H]1O[C@@H]2COP(=O)(O)O[C@H]2[C@H]1OC(=O)CCC [Dibutyryl cAMP, dibutyryl cAMP, reference compound]							+ (medium (20-80%))
